The target of one test is CDK6/D3 (Homo sapiens, UniProt Q00534). Briefly: ADP Glo Kinase assay CDK6/D3. It counts as biochemical. The conditions noted are these: CDK6D3; for remaining activity at 10 µM: compound at 10 μM, read-out: residual activity (%) at 10 μM CDK6D3; for Ki: read-out: CDK inhibition, Ki (μM) CDK6D3. Put shortly: (§1)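 Other CDKs and further kinases were profiled externally by radiometric assay. In-house ADP Glo assays covered CDK4/D1 and CDK6/D3 (RB-CTF substrate, pH 7.5 Tris buffer with MgCl2, DTT, BSA) and CDK9/T1 (RBER-IRStide substrate), 40 min at 37° C.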
Chain of CDK6/D3 (Q00534 whole entry): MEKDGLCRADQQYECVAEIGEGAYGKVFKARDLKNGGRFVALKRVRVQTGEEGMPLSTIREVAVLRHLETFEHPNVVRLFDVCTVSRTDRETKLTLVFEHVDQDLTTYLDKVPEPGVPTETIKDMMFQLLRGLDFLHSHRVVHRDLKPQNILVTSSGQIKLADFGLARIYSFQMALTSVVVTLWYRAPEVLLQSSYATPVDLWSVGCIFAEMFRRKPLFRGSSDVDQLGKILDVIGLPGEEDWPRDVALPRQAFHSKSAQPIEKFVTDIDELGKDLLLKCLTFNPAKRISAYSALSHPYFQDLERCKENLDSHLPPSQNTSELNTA
Chain of CDK6/D3 (P30281 whole entry partner): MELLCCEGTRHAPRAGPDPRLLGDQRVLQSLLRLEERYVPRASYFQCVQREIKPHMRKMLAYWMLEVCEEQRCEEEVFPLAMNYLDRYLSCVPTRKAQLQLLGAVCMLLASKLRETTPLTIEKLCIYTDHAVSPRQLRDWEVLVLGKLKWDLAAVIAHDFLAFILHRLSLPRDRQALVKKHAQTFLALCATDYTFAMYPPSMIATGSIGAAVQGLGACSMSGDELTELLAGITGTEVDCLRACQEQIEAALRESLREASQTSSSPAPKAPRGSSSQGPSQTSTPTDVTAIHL

Another test relates to leukemia cell lines. In words: Resazurin cell viability assay on leukemia cell lines (72 h growth inhibition, GI50). It counts as cell-based. The conditions noted are these: Homo sapiens, MV4-11 cells. The procedure, abridged: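 Standard published viability protocols apply here, MTT-based for solid tumour cells and resazurin-based for leukaemia cells, with 50% growth inhibition concentrations derived through non-linear regression.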
On the technique in general: Resazurin is reduced to fluorescent resorufin, in cell work by metabolically active cells.

The target in the next test is CDK9/T1 (Homo sapiens, UniProt P50750). Briefly: ADP Glo Kinase assay CDK9/T1. It counts as biochemical. Conditions: CDK9T1; read-out: CDK inhibition, Ki (μM) CDK9T1. Put shortly:
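CDK4/D1 and CDK6/D3 were run in […] Tris pH 7.5, 20 mM MgCl2, 0.4 mM DTT, 0.1 mg/ml BSA with RB-CTF substrate; CDK9/T1 used RBER-IRStide. ATP-started reactions ran 40 min at 37° C, with ADP Glo luminescence read-out. IC50 came from 4-parameter fits; Ki from Km (ATP) and IC50.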
A general note: In ADP-Glo the light output rises with the ADP produced.

The target of test [1] is T1, CDKs and other kinases (Homo sapiens, UniProt P24941).
T1 construct: other: CDK2A; residual activity (%) at 10 μM CDK2A; compound at 10 μM
Briefly: Radiometric kinase assay (Eurofins Pharma Discovery or Reaction Biology Corporation Kinase Profiler). Conditions: CDK2A; for remaining activity at 10 µM: compound at 10 μM, read-out: residual activity (%) at 10 μM CDK2A; for Ki: read-out: CDK inhibition, Ki (μM) CDK2A. It counts as biochemical. The procedure, abridged:
as §1

Test [2] has as its target T2, CDKs and other kinases (Homo sapiens, UniProt P50613).
T2 construct: other: CDK7H; residual activity (%) at 10 μM CDK7H; compound at 10 μM
The test is described as above. The conditions noted are these: CDK7H; for remaining activity at 10 µM: compound at 10 μM, read-out: residual activity (%) at 10 μM CDK7H; for Ki: read-out: CDK inhibition, Ki (μM) CDK7H. The format is biochemical. Put shortly:
as §1

Test [3] has as its target T3, CDKs and other kinases (Homo sapiens, UniProt P06493).
T3 construct: other: CDK1B; residual activity (%) at 10 μM CDK1B; compound at 10 μM
Described as above. Conditions: CDK1B; for remaining activity at 10 µM: compound at 10 μM, read-out: residual activity (%) at 10 μM CDK1B; for Ki: read-out: CDK inhibition, Ki (μM) CDK1B. The format is biochemical. The procedure, abridged: as §1

A further test addresses CDK4/D1 (Homo sapiens, UniProt P11802). In words: ADP Glo Kinase assay CDK4/D1. Conditions: CDK4D1; for remaining activity at 10 µM: compound at 10 μM, read-out: residual activity (%) at 10 μM CDK4D1; for Ki: read-out: CDK inhibition, Ki (μM) CDK4D1. It counts as biochemical. Put shortly: as §1

T3 sequence (P06493 whole entry): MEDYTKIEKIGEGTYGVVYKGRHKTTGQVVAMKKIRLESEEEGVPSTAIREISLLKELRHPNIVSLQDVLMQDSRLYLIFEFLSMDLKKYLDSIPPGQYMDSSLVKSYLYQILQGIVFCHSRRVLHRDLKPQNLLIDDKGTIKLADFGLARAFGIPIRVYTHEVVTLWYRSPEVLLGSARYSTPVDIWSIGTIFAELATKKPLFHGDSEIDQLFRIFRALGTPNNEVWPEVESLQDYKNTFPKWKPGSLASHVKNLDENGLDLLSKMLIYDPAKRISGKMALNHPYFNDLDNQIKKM
Chain of CDK4/D1 (P11802 whole entry): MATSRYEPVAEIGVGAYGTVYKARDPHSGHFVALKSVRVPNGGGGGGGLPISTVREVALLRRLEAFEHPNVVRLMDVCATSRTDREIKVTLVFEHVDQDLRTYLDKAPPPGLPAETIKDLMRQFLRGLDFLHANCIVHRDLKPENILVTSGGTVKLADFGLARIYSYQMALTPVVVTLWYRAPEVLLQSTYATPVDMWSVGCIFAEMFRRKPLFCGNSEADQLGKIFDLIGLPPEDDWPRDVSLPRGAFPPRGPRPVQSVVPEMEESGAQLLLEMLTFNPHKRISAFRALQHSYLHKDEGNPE
Chain of CDK4/D1 (P24385 whole entry partner): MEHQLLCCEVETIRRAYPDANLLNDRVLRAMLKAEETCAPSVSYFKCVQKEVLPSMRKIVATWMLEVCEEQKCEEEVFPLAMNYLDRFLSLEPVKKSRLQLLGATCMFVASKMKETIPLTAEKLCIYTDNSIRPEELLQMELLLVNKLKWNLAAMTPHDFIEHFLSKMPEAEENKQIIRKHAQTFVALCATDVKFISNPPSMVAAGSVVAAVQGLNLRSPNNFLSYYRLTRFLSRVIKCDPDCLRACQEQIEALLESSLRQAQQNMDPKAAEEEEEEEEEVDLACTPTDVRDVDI
Chain of CDK9/T1 (P50750 whole entry): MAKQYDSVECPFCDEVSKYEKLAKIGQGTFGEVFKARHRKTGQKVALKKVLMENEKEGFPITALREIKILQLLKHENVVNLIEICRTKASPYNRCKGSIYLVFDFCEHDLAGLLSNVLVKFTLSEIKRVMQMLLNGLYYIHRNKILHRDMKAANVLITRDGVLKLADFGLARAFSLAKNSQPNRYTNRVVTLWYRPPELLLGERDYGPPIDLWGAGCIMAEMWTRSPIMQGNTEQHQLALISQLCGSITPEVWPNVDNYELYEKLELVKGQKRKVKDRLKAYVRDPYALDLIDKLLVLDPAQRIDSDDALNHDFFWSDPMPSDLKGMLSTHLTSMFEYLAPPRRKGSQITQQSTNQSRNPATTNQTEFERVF
Chain of CDK9/T1 (O60563 whole entry partner): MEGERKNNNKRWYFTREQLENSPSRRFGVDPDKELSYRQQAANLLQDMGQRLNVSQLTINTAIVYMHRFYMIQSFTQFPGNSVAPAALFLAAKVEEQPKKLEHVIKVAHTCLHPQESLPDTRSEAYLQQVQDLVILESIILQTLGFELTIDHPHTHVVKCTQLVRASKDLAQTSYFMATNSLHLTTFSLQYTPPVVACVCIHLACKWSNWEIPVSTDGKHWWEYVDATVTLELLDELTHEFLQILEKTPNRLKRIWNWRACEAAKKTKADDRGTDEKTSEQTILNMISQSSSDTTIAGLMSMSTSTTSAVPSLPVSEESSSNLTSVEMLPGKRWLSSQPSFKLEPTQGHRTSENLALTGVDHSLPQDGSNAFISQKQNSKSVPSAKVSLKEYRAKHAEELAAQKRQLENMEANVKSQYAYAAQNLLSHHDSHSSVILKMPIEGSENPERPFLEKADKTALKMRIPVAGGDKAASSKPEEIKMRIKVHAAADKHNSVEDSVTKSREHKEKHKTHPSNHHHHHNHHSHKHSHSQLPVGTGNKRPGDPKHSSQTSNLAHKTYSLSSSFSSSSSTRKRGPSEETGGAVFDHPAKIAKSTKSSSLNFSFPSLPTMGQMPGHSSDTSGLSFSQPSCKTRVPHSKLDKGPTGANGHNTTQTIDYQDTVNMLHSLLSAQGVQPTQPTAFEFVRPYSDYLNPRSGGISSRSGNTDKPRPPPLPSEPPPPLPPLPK
T2 sequence (P50613 whole entry): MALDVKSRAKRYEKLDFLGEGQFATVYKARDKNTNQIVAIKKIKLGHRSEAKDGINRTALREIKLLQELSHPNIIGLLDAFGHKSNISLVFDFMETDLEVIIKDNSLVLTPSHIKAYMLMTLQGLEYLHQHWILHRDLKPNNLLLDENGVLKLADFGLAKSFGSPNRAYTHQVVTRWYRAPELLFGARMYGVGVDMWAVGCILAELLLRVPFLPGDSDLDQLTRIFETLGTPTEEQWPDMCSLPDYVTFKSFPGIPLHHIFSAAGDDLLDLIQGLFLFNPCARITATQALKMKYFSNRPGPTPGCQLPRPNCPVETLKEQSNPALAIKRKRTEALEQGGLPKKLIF

As a reminder, the GI50 is the concentration that inhibits growth by half. A low value points to greater sensitivity of the cells. By Ki is commonly meant the equilibrium dissociation constant of an inhibitor or competing ligand from its target. As to `N[C@H]1CC[C@H](Nc2ncc(F)c(-c3cnc4ccc(Nc5cccc(F)c5)cn34)n2)CC1` [Compound 25, (1r,4r)-N^1-(5-Fluoro-4-(6-((3-fluorophenyl)amino)imidazo[1,2-a]pyridin-3-yl)pyrimidin-2-yl) cyclohexane-1,4-diamine], the remaining activity at 10 µM was found to be 4% at CDK6/D3; 2% on CDKs and other kinases [1]; 1% at CDKs and other kinases [2]; 3% at CDKs and other kinases [3]; 4% at CDK4/D1. Also, the GI50 in the test on leukemia cell lines is less than 0.001 µM. Besides, the inhibitory constant (Ki) at CDK9/T1 worked out at 0.003 µM.

Regarding `N[C@H]1CC[C@H](Nc2ncc(F)c(-c3cnc4ccc(-c5cccnc5)cn34)n2)CC1` [Compound 26, (1r,4r)-N^1-(5-Fluoro-4-(6-(pyridin-3-yl)imidazo[1,2-a]pyridin-3-yl)pyrimidin-2-yl)cyclohexane-1,4-diamine], the remaining activity at 10 µM on CDK6/D3 turned out to be 24%; on CDKs and other kinases [1], 5%; at CDKs and other kinases [2], 0%; at CDKs and other kinases [3], 7%; at CDK4/D1 it was 9%. This compound also registered a GI50 in the test with leukemia cell lines of less than 0.001 µM. For the same compound, the Ki at CDK9/T1 turned out to be 0.003 µM.

For the compound `N[C@H]1CC[C@H](Nc2ncc(F)c(-c3cnc4ccc(-c5ncccc5F)cn34)n2)CC1` [Compound 27, (1r,4r)-N^1-(5-Fluoro-4-(6-(3-fluoropyridin-2-yl)imidazo [1,2-a]pyridin-3-yl)pyrimidin-2-yl)cyclohexane-1,4-diamine], the remaining activity at 10 µM on CDK6/D3 was 15%; on CDKs and other kinases [1], 4%; at CDKs and other kinases [2] it was 2%; on CDKs and other kinases [3], -1%; at CDK4/D1, 4%. Moreover, the GI50 in the test on leukemia cell lines was less than 0.001 µM. Besides, the Ki on CDK9/T1 turned out to be 0.003 µM.

`Fc1cnc(N[C@H]2CC[C@H](Nc3ccccn3)CC2)nc1-c1cnc2ccc(-c3ccccc3)cn12` [Compound 28, (1r,4r)-N^1-(5-Fluoro-4-(6-phenylimidazo[1,2-a]pyridin-3-yl)pyrimidin-2-yl)-N4-(pyridin-2-yl)cyclohexane-1,4-diamine]: the remaining activity at 10 µM is 100% at CDK6/D3; 8% on CDKs and other kinases [1]; 2% on CDKs and other kinases [2]; 4% at CDKs and other kinases [3]; 95% on CDK4/D1. Further, in the test with leukemia cell lines, halving of growth (GI50) required 0.042 ± 0.017 µM. The inhibition constant (Ki) at CDK9/T1 amounted to 0.85 µM.

On to `Cc1cnc(N[C@H]2CC[C@H](N)CC2)nc1-c1cnc2ccc(-c3cccnc3)cn12` [Compound 29, (1r,4r)-N^1-(5-Methyl-4-(6-(pyridin-3-yl)imidazo[1,2-a]pyridin-3-yl)pyrimidin-2-yl)cyclohexane-1,4-diamine], for which the remaining activity at 10 µM on CDK6/D3 turned out to be 45%; at CDK4/D1, 17%. This compound had a concentration for 50% growth inhibition (GI50) in the test with leukemia cell lines of 0.101 ± 0.039 µM. In addition, the Ki on CDK9/T1 amounted to 0.051 µM; on CDKs and other kinases [1], 1.83 µM; on CDKs and other kinases [2], 2.73 µM; on CDKs and other kinases [3], 3.57 µM.

`Cc1cnc(N[C@H]2CC[C@H](N)CC2)nc1-c1cnc2ccc(-c3ncccc3F)cn12` [Compound 30, (1r,4r)-N^1-(4-(6-(3-Fluoropyridin-2-yl)imidazo[1,2-a]pyridin-3-yl)-5-methylpyrimidin-2-yl)cyclohexane-1,4-diamine]: the remaining activity at 10 µM on CDK6/D3 is 39%; at CDKs and other kinases [1], 49%; at CDKs and other kinases [2] it was 13%; on CDKs and other kinases [3], 67%; on CDK4/D1 it was 17%. In addition, halving of growth in the test with leukemia cell lines (GI50) required 0.017 ± 0.006 µM. Further, on CDK9/T1, the inhibition constant (Ki) worked out at 0.12 µM.

The term residual activity denotes the signal under treatment as a percentage of the control signal. Regarding `Cc1cnc(N[C@H]2CC[C@H](N)CC2)nc1-c1cnc2ccc(Nc3ccccc3)cn12` [Compound 31, (1r,4r)-N^1-(5-Methyl-4-(6-(phenylamino)imidazo[1,2-a]pyridin-3-yl)pyrimidin-2-yl)cyclohexane-1,4-diamine], the remaining activity at 10 µM on CDK6/D3 is 11%; at CDKs and other kinases [2], 13%; at CDKs and other kinases [3], 32%. In the test on leukemia cell lines, this compound had a concentration for 50% growth inhibition (GI50) of 0.005 ± 0.002 µM. Further, the Ki at CDK9/T1 turned out to be 0.018 µM. Moreover, the residual activity at 10 µM worked out at 145% at CDKs and other kinases [1]; 45% on CDK4/D1.

For `Cc1cnc(N[C@H]2CC[C@H](N)CC2)nc1-c1cnc2ccc(NCc3ccc(F)cc3)cn12` [Compound 32, (1r,4r)-N^1-(4-(6-((4-Fluorobenzyl)amino)imidazo[1,2-a]pyridin-3-yl)-5-methylpyrimidin-2-yl)cyclohexane-1,4-diamine], the remaining activity at 10 µM is 36% on CDK6/D3 and 16% on CDK4/D1. Further, in the test on leukemia cell lines, growth was halved (GI50) at 0.066 ± 0.014 µM. The inhibition constant Ki is 0.094 µM on CDK9/T1; 0.63 µM at CDKs and other kinases [1]; 5.39 µM on CDKs and other kinases [2]; greater than 10 µM on CDKs and other kinases [3].

With `Fc1cnc(N[C@H]2CC[C@H](NC3CCOCC3)CC2)nc1-c1cnc2ccccn12` [Compound 33, (1r,4r)-N^1-(5-Fluoro-4-(imidazo[1,2-a]pyridin-3-yl)pyrimidin-2-yl)-N4-(tetrahydro-2H-pyran-4-yl) cyclohexane-1,4-diamine], the remaining activity at 10 µM on CDK6/D3 worked out at 12%; at CDKs and other kinases [1], 13%; at CDKs and other kinases [2], 7%; at CDKs and other kinases [3] it was 11%; at CDK4/D1 it was 7%. Moreover, the GI50 in the test on leukemia cell lines came to 0.004 ± 0.001 µM. Moreover, the Ki on CDK9/T1 worked out at 0.022 µM.

`Cc1cnc(N[C@H]2CC[C@H](N)CC2)nc1-c1cnc2ccc(Nc3cccnc3)cn12` [Compound 34, (1r,4r)-N^1-(5-Methyl-4-(6-(pyridin-3-ylamino)imidazo [1,2-a]pyridin-3-yl)pyrimidin-2-yl)cyclohexane-1,4-diamine]: the Ki was determined as 1.05 µM at CDK6/D3; 0.005 µM at CDK9/T1; 0.09 µM at CDKs and other kinases [1]; 2.24 µM on CDKs and other kinases [2]; 2.16 µM on CDKs and other kinases [3]; 2.8 µM at CDK4/D1. In the test with leukemia cell lines, this compound came in with a concentration for 50% growth inhibition (GI50) of 0.095 ± 0.031 µM.

In the case of `N[C@H]1CC[C@H](Nc2ncc(Cl)c(-c3cnc4ccc(-c5cccnc5)cn34)n2)CC1` [Compound 35, (1r,4r)-N^1-(5-Chloro-4-(6-(pyridin-3-yl)imidazo[1,2-a]pyridin-3-yl)pyrimidin-2-yl)cyclohexane-1,4-diamine], the Ki at CDK6/D3 worked out at 0.394 µM; at CDK9/T1 it was 0.007 µM; at CDKs and other kinases [1], 0.26 µM; on CDKs and other kinases [2], 0.27 µM; at CDKs and other kinases [3] it was 0.88 µM; at CDK4/D1 it was 0.79 µM. For the same compound, in the test on leukemia cell lines, the 50% growth inhibitory concentration (GI50) turned out to be 0.011 ± 0.002 µM.

Consider `N[C@H]1CC[C@H](Nc2ncc(Cl)c(-c3cnc4ccc(-c5ccncc5)cn34)n2)CC1` [Compound 36, (1r,4r)-N^1-(5-Chloro-4-(6-(pyridin-4-yl)imidazo[1,2-a]pyridin-3-yl)pyrimidin-2-yl)cyclohexane-1,4-diamine], for which the values for the remaining activity at 10 µM on CDK6/D3 and on CDK4/D1 were 48% and 4%, respectively. This compound yielded a concentration for 50% growth inhibition (GI50) with leukemia cell lines of 0.004 ± 0.001 µM. Also, the Ki on CDK9/T1 is 0.016 µM; at CDKs and other kinases [1] it was 0.016 µM; on CDKs and other kinases [2], 0.094 µM; at CDKs and other kinases [3] it was 0.065 µM.
